From patent US20250304549A1, “HYDROXYAMIDE DERIVATIVE AND USE THEREOF” (SICHUAN HUIYU PHARMACEUTICAL CO., LTD., priority 2022, published 2025) come the findings set out here.

Assay [1] concerns the target LSD1 (Homo sapiens (Human), UniProt O60341). The assay is described as follows: In vitro enzyme inhibition assay - LSD1 (HTRF). It counts as biochemical. (Time-resolved FRET reads energy transfer from a long-lived donor to a nearby acceptor.)
Assay [2] relates to NCI-H69 cells. Kind of assay: In vitro cell inhibition assay - NCI-H69 cell proliferation (CellTiter-Glo). As to conditions: Homo sapiens, NCI-H69, H69 small cell lung cancer cell proliferation. The class given is cell-based. An outline of the steps:
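7-day exposure at 37° C., 5% CO2 to compounds serially diluted 5-fold (8 concentrations) in RPMI-640 containing 20% FBS, after overnight attachment at 1×10^3 cells/well. Read-out: CellTiter-Glo luminescence (RLU); IC50 from curve fit of inhibition rate.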
A general note: In ATP-based viability assays light output follows the ATP content of the culture.

In assay [3] the test system is NCI-H526 cells. The assay is described as follows: In vitro cell inhibition assay - NCI-H526 cell proliferation (CellTiter-Glo). The following applies: Homo sapiens, NCI-H526, 120 h, H526 small cell lung cancer cell proliferation, 5 days. The class given is cell-based. Here is the method:
6. In Vitro Cell Inhibition Assay—NCI-H526 Cell Proliferation
The inhibitory effect of the compounds on cell proliferation was assessed by detecting the number of viable cells using CellTiter-Glo® reagent. NCI-H526 cells in the logarithmic growth phase were collected and inoculated into transparent bottom 96-well plates at a density 1×10^3 cells per well with 100 μL of medium, and incubated at 37° C., 5% CO2 overnight. The compounds were sequentially diluted in a 5-fold concentration gradient with DMSO to obtain 8 different concentrations. These were then diluted with RPMI-640 (containing 10% FBS) cell culture medium to obtain the compound working solution (2×), which was added to the cell supernatant at 100 μL per well. The incubation continued for 5 days at 37° C., 5% CO2. The plate was then removed and equilibrated at room temperature (25° C.) along with the CellTiter-Glo® mixing reagent for 10-30 minutes; 80 μL of the culture medium was carefully aspirated from each well, and 80 μL of CellTiter-Glo® reagent was added. The cells were thoroughly mixed with the CellTiter-Glo® mixing reagent using a microplate shaker for 2 min. and then incubated at room temperature for 10 min. The 96-well plate was subsequently placed on a multifunctional microplate reader to record the Luminescence values (RLU).
The inhibition rate was calculated using the following formula: […]
Note: ‘Negative’ refers to the group without inhibitors; ‘Blank’ refers to the group without cells.
The IC50 value was determined by fitting the inhibition rate by GraphPad Prism software.

The target in assay [4] is HDAC8 (Homo sapiens (Human), UniProt Q9BY41). Kind of assay: In vitro enzyme inhibition assay - HDAC (HDAC-Glo I/II), HDAC8. The class given is biochemical. As to conditions: read-out: HDAC IC50 (nM) HDAC 8. In outline:
(§1)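 Eight compound concentrations (5-fold gradient; 1 mM DMSO stock) were assayed by HDAC-Glo I/II luminescence. IC50 was obtained by four-parameter fitting.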

In assay [5] the target is pan-HDAC. Kind of assay: In vitro enzyme inhibition assay - HDAC (HDAC-Glo I/II), pan-HDAC. It counts as biochemical. In outline: as §1
For assay [6], the system named is NCI-H1417 cells. The assay is described as follows: In vitro cell inhibition assay - H1417 cell proliferation (CellTiter-Glo). It counts as cell-based. The following applies: Homo sapiens, NCI-H1417, H1417 small cell lung cancer cell proliferation. An outline of the steps:
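Cells exposed to 8 compound concentrations (5-fold dilutions) in BEGM with 10% FBS for 7 days at 37° C., 5% CO2. Viable cells measured by CellTiter-Glo luminescence; inhibition versus no-inhibitor and no-cell controls, IC50 fitted.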

Structures are written as SMILES. Where a name gives a salt, the structure may show the parent alone.

What is called IC50 is the point on the concentration scale where inhibition reaches its midpoint.

Sequence of HDAC8 (Q9BY41 whole entry): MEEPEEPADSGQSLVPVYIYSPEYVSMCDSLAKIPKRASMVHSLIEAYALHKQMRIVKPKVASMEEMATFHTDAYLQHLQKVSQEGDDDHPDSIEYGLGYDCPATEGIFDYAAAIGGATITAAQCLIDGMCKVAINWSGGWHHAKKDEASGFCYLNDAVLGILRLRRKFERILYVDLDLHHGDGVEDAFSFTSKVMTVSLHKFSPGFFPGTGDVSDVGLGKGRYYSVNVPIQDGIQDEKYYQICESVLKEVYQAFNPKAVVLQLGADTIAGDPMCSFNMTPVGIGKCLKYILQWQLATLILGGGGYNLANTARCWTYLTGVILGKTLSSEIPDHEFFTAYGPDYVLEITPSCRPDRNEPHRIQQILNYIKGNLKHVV

As to `COc1ccc(-c2cnc(N3CCC(NCc4ccc(/C=C/C(=O)NO)cc4F)CC3)c(C#N)c2-c2ccc(C#N)c(F)c2)cc1O` [Example 154, (E)-3-(4-(((1-(3-Cyano-4-(4-cyano-3-fluorophenyl)-5-(3-hydroxy-4-methoxyphenyl)pyridin-2-yl)piperidin-4-yl)amino)methyl)-3-fluorophenyl)-N-hydroxyacrylamide hydrochloride], the IC50 in assay [1] was found to be 0.44 nM; in assay [2], 16.5 nM; in assay [3] it was 21.7 nM; in assay [4] it was 309 nM; in assay [5] it was 4.3 nM; in assay [6] it was 1.41 nM.
Take `COc1ccc(-c2cnc(N3CCC(NCc4ccc(/C=C/C(=O)NO)cc4Cl)CC3)c(C#N)c2-c2ccc(C#N)c(F)c2)cc1O` [Example 156, (E)-3-(3-Chloro-4-((1-(3-cyano-4-(4-cyano-3-fluorophenyl)-5-(3-hydroxy-4-methoxyphenyl)pyridin-2-yl)piperidin-4-yl)amino)methyl) phenyl)-N-hydroxyacrylamide formate]: the concentration for half-maximal inhibition (IC50) in assay [1] worked out at 2.53 nM; in assay [2] it was 58.1 nM; in assay [3], 80.4 nM; in assay [4], 731 nM; in assay [5], 8.88 nM; in assay [6], 6.64 nM.
On to `N#Cc1ccc(-c2c(-c3ccc(Cl)c(O)c3)cnc(N3CCC(NCc4cnc(/C=C/C(=O)NO)nc4)CC3)c2C#N)cc1F` [Example 159, (E)-3-(5-(((1-(5-(4-Chloro-3-hydroxyphenyl)-3-cyano-4-(4-cyano-3-fluorophenyl)pyridin-2-yl)piperidin-4-yl)amino)methyl)pyrimidin-2-yl)-N-hydroxyacrylamide hydrochloride], for which the half-inhibitory concentration (IC50) in assay [1] turned out to be 1.82 nM; in assay [2], 17.9 nM; in assay [3], 16.1 nM; in assay [4], 83.5 nM; in assay [5], 2.71 nM; in assay [6] it was 3.5 nM.
Take `COc1ccc(-c2cnc(N3CCC(NCc4ccc(/C=C/C(=O)NO)c(C#N)c4)CC3)c(C#N)c2-c2ccc(C#N)c(F)c2)cc1O` [Example 162, (E)-3-(2-Cyano-4-((1-(3-cyano-4-(4-cyano-3-fluorophenyl)-5-(3-hydroxy-4-methoxyphenyl)pyridin-2-yl)piperidin-4-yl)amino)methyl) phenyl)-N-hydroxyacrylamide formate]: the 50% inhibitory concentration (IC50) in assay [1] came to 0.4 nM; in assay [2] it was 21.7 nM; in assay [3], 18.5 nM; in assay [4], 209 nM; in assay [5] it was 3.34 nM; in assay [6], 2.98 nM.
On to `COc1cc(F)c(-c2cnc(N3CCC(NCc4ccc(/C=C/C(=O)NO)cc4)CC3)c(C#N)c2-c2ccc(C#N)nc2)cc1O` [Example 255, (E)-3-(4-(((1-(3′,6-Dicyano-5′-(2-fluoro-5-hydroxy-4-methoxyphenyl)-[3,4′-bipyridin]-2′-yl)piperidin-4-yl)amino)methyl)phenyl)-N-hydroxyacrylamide formate], for which the IC50 in assay [1] stood at 1.54 nM; in assay [2], 7.82 nM; in assay [3], 11 nM; in assay [5] it was 0.68 nM; in assay [6] it was 3.39 nM.
Consider `COc1ccc(-c2cnc(N3CCC(NCc4ccc(/C=C/C(=O)NO)c(F)c4)CC3)c(C#N)c2-c2ccc(C#N)nc2)cc1O` [Example 258, (E)-3-(4-(((1-(3′,6-Dicyano-5′-(3-hydroxy-4-methoxyphenyl)-[3,4′-bipyridin]-2′-yl)piperidin-4-yl)amino)methyl)-2-fluorophenyl)-N-hydroxyacrylamide formate], for which the IC50 in assay [1] amounted to 1.41 nM; in assay [2], 1.81 nM; in assay [3], 2.09 nM; in assay [5], 0.3 nM; in assay [6], 1.05 nM.
The corresponding values for `COc1ccc(-c2cnc(N3CCC(NCc4ccc(/C=C(\F)C(=O)NO)cc4)CC3)c(C#N)c2-c2ccc(C#N)nc2)cc1O` [Example 260, (Z)-3-(4-(((1-(3′,6-Dicyano-5′-(3-hydroxy-4-methoxyphenyl)-[3,4′-bipyridin]-2′-yl)piperidin-4-yl)amino)methyl)phenyl)-2-fluoro-N-hydroxyacrylamide dformate] are 2.37 nM, 8.18 nM, 11.5 nM, 0.77 nM and 3.02 nM.
The corresponding values for `COc1ccc(-c2cnc(N3CCC(NCc4ccc(/C=C/C(=O)NO)cc4)CC3)c(OC)c2-c2ccc(C#N)nc2)cc1O` [Example 263, (E)-3-(4-(((1-(6-Cyano-5′-(3-hydroxy-4-methoxyphenyl)-3′-methoxy-[3,4′-bipyridin]-2′-yl)piperidin-4-yl)amino)methyl)phenyl)-N-hydroxyacrylamide formate] are 16.8 nM, 1.14 nM, 2.22 nM, 0.34 nM and 1.64 nM.
The like results for `COc1ccc(-c2cnc(N3CCC(NCc4ccc(/C=C/C(=O)NO)cc4F)CC3)c(OC)c2-c2ccc(C#N)nc2)cc1O` [Example 264, (E)-3-(4-(((1-(6-Cyano-5′-(3-hydroxy-4-methoxyphenyl)-3′-methoxy-[3,4′-bipyridin]-2′-yl)piperidin-4-yl)amino)methyl)-3-fluorophenyl)-N-hydroxyacrylamide formate] were, in that order, 25.4 nM, 1.84 nM, 5.12 nM, 0.89 nM and 2.2 nM.
As for `COc1cc(F)c(-c2cnc(N3CCC(NCc4ccc(/C=C/C(=O)NO)cc4)CC3)c(OC)c2-c2ccc(C#N)nc2)cc1O` [Example 265, (E)-3-(4-(((1-(6-Cyano-5′-(2-fluoro-5-hydroxy-4-methoxyphenyl)-3′-methoxy-[3,4′-bipyridin]-2′-yl)piperidin-4-yl)amino)methyl)phenyl)-N-hydroxyacrylamide formate], the IC50 amounted to 10.2 nM in assay [1]; 7.2 nM in assay [2]; 5.85 nM in assay [3]; 0.45 nM in assay [5]; 5.09 nM in assay [6].
The like results for `COc1ccc(-c2cnc(N3CCC(NCc4ccc(/C=C/C(=O)NO)nc4)CC3)c(OC)c2-c2ccc(C#N)nc2)cc1O` [Example 266, (E)-3-(5-(((1-(6-Cyano-5′-(3-hydroxy-4-methoxyphenyl)-3′-methoxy-[3,4′-bipyridin]-2′-yl)piperidin-4-yl)amino)methyl)pyridin-2-yl)-N-hydroxyacrylamide formate] were, in that order, 24.2 nM, 2.02 nM, 2.35 nM, 0.16 nM and 2.09 nM.
`COc1ccc(-c2cnc(N3CCC(NCc4ccc(/C=C/C(=O)NO)cc4)CC3)c(F)c2-c2ccc(C#N)nc2)cc1O` [Example 268, (E)-3-(4-(((1-(6-Cyano-3′-fluoro-5′-(3-hydroxy-4-methoxyphenyl)-[3,4′-bipyridin]-2′-yl)piperidin-4-yl)amino)methyl)phenyl)-N-hydroxyacrylamide formate]: the IC50 in assay [1] turned out to be 147 nM; in assay [2] it was 1.58 nM; in assay [3], 2.22 nM; in assay [5], 0.27 nM; in assay [6], 2.03 nM.
